One block for each compound: values may come before it.
Experiments:
COX-2 = target: T1, COX-2 (Homo sapiens, UniProt P35354); assay: Human whole blood assay (LPS-induced PGE2, COX-2 inhibition); type: cell-based; details: LPS stimulated
T1 construct: Fresh blood was collected in tubes containing sodium heparin by vein puncture from healthy male volunteers; endogenous in cells; host or cells: human whole blood from healthy male volunteers, aspirin-pretreated and LPS-stimulated
T1 sequence (P35354 18-604): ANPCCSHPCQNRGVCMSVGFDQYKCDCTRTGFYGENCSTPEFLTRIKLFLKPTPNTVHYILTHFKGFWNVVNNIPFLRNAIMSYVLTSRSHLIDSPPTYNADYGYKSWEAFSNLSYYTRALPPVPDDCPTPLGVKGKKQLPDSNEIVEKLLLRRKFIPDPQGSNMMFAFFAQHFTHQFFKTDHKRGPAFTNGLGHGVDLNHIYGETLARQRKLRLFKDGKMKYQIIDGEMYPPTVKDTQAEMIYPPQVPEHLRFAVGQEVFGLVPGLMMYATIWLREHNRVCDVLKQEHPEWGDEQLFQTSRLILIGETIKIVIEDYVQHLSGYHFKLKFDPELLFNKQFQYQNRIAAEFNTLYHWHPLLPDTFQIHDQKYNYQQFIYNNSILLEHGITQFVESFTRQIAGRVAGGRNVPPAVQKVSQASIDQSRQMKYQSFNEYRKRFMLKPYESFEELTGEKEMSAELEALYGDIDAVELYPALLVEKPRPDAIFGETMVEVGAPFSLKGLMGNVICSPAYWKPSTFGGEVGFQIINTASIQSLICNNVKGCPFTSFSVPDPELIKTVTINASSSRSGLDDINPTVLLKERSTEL
Procedure: Human whole blood provides a protein and cell rich milieu appropriate for the study of biochemical efficacy of anti-inflammatory compounds such as selective COX-2 inhibitors. […] This is correlating with the observation that COX-2 inhibitors have no effect on prostaglandin E2 (PGE2) production in normal blood. These inhibitors were active only after incubation of human blood with lipopolysaccharide (LPS), which induces COX-2 production in the blood.
Fresh blood was collected in tubes containing sodium heparin by vein puncture from healthy male volunteers. The subjects should have no apparent inflammatory conditions and not taken NSAIDs for at least 7 days prior to blood collection. Blood was preincubated with aspirin in vitro (12 μg/ml, at time zero) to inactivate COX-1 for 6 hours. Then test compounds (at various concentrations) or vehicle were added to blood. After that blood was stimulated with LPS B:4 (10 μg/ml) and incubated for another 18 h at 37° C. water bath. After which the blood was centrifuged, plasma was separated and stored at −80° C. (J. Pharmacol. Exp. Ther, 271, 1705, 1994; Proc. Natl. Acad. Sci. USA, 96, 7563, 1999). The plasma was assayed for PGE2 using Cayman ELISA kit as per the procedure outlined by the manufacturer (Cayman Chemicals, Ann Arbor, USA).

NCI-H460 = assay: DTP human tumor cell line screen, NCI-H460; type: cell-based; details: 100 μM; 48 hours; percent growth of control
Procedure: (§1) The current assay utilizes a 384 well plate format and fluorescent staining technologies resulting in greater screening capacity for testing of synthetic samples.
(§2) The cell lines of the cancer-screening panel are grown in RPMI 1640 medium containing 5% fetal bovine serum and 2 mM L-glutamine. For a typical screening experiment, cells are inoculated into 96 well microtiter plates in 100 μL. After cell inoculation, the micro-titer plates are incubated at 37° C., 5% CO2, 95% air and 100% relative humidity for 24 h prior to addition of experimental drugs. The cells are plated a densities of 5000 cells/well (MCF7), 1000 cells/well (NCI-H460), and 7500 cells/well (SF-268) to allow for varying doubling time of the cell lines. Each plate contains all three-cell lines, a series of dilutions of standard agents, total kill wells and appropriate controls. Plates are incubated under standard conditions for 24 hours prior to addition of experimental compounds or extracts.
(§3) Experimental compounds are solubilized in dimethyl sulfoxide (DMSO) at 400-times the desired maximum test concentration (maximum final DMSO concentration of 0.25%) and stored frozen. Compounds are then diluted with complete media with 0.1% gentamicin sulfate (5 μl of test sample in 100% DMSO is added to 565 μl of complete medium). 20 μl of this solution is then dispensed into test wells containing 50 μl of cell suspension to yield a test concentration of 1.00E-04M.
(§4) After compound addition, plates are incubated at standard conditions for 48 hours, 10 μl/well Alamar Blue is added and the plates are incubated for an additional 4 hours. Fluorescence is measured using an excitation wavelength of 530 nm and an emission wavelength of 590 nm.
(§5) Percent growth is calculated on a plate-by-plate basis for test wells relative to control wells. Percent Growth is expressed as the ratio of fluorescence of the test well to the average fluorescence of the control wells ×100.

MCF-7 = assay: DTP human tumor cell line screen, MCF-7; type: cell-based; details: 100 μM; 48 hours; percent growth of control
Procedure: as §1, §2, §3, §4, §5

SF-268 = assay: DTP human tumor cell line screen, SF-268; type: cell-based; details: 100 μM; 48 hours; percent growth of control
Procedure: as §1, §2, §3, §4, §5

TNF-α [1] = assay: In vitro measurement of TNF-α in LPS-stimulated human PBMC; type: cell-based; details: LPS 1 μg/ml, 18 h
Procedure: This assay determines the effect of test compounds on the production of TNF α in human Peripheral Blood Mononuclear Cells (PBMC). Compounds were tested for their ability to inhibit the activity of TNF α in human PBMC. PBMC were isolated from blood (from healthy volunteers) using BD Vacutainer CPT™ (Cell preparation tube, BD Bio Science) and suspended in RPMI medium (Physiol. Res. 52: 593-598, 2003). The test compounds were pre-incubated with PBMC (0.5 million/incubation well) for 15 minutes at 37° C. and then stimulated with Lipopolysaccharide (Escherichia coli: B4; 1 μg/ml) for 18 h at 37° C. in 5% CO2. The levels of TNFα in cell culture medium were estimated using enzyme linked Immunosorbent assay performed in a 96 well format as per the procedure of the manufacturer (Cayman Chemical, Ann Arbor, USA).

TNF-α [2] = assay: LPS induced sepsis for measurement of TNF-α inhibition in mice; type: in vivo; details: at 50 mg/kg, oral, serum 90 min after LPS
Procedure: The LPS induced sepsis model in mice was performed as described by Les sekut et al (J Lab Clin Med 1994; 124:813-20). Female Swiss albino mice were selected and the body weights were equivalent within each group. The mice were fasted for 20 hours with free access to water. The mice were dosed orally with the test compound suspended in vehicle containing 0.5% Tween 80 in 0.25% Carboxy-methylcellulose sodium salt. The control mice were administered the vehicle alone. After 30 min of oral dosing, mice were injected with 500 μg of Lipopolysaccharide (Escherichia coli, LPS: B4 from Sigma) in phosphate buffer saline solution into the intraperitoneal cavity of the mice. After 90 min of LPS administration mice were bled via retro-orbital sinus puncture. Blood samples were stored overnight at 4° C. Serum samples were collected by centrifuging the samples at 400 rpm for 15 min at 4° C. Immediately the serum samples were analysed for TNFα levels using commercially available mouse TNF-α ELISA kit (Amersham Biosciences) and assay was performed by the manufacturer instruction.

- inhibition at 10 µM (COX-2): 27.1%
SMILES: CSc1ccc(-c2nc3[nH]nc(N)c3c(=O)n2-c2ccc(Cl)cc2)cc1 [Example 9, 3-Amino-5-(4-chlorophenyl)-6-[(4-methylthio)phenyl]-1,5-dihydro-4H-pyrazolo[3,4-d]pyrimidin-4-one]
- % T/C Lung (NCI-H460) (NCI-H460): 4%
- % T/C Breast (MCF-7) (MCF-7): 9%
- % T/C CNS (SF-268) (SF-268): 31%

SMILES: CSc1ccc(-c2nc3c(c(N)nn3C)c(=O)n2-c2ccc(F)cc2)cc1 [Example 25, 3-Amino-5-(4-fluorophenyl)-1-methyl-6-[4-(methylthio)phenyl]-1,5-dihydro-4H-pyrazolo[3,4-d]pyrimidin-4-one]
- inhibition at 10 µM (TNF-α [1]): 52.9%

- inhibition at 0.25 µM (COX-2): 26.2%
SMILES: Nc1n[nH]c2nc(-c3ccccc3)n(-c3ccc(F)cc3)c(=O)c12 [Example 12, 3-Amino-5-(4-fluorophenyl)-6-phenyl-1,5-dihydro-4H-pyrazolo[3,4-d]pyrimidin-4-one]

- inhibition at 0.25 µM (COX-2): 26.8%
SMILES: CSc1ccc(-n2c(-c3ccc(C)cc3)nc3[nH]nc(N)c3c2=O)cc1 [Example 13, 3-Amino-5-[(4-methylthio)phenyl]-6-(4-methylphenyl)-1,5-dihydro-4H-pyrazolo[3,4-d]pyrimidin-4-one]

- inhibition at 0.25 µM (COX-2): 18.6%
- inhibition at 10 µM (COX-2): 37.7%
SMILES: CSc1ccc(-c2nc3[nH]nc(N)c3c(=O)n2-c2ccc(C(C)(C)C)cc2)cc1 [Example 6, 3-Amino-5-(4-tert-butylphenyl)-6-[4-(methylthio)phenyl]-1,5-dihydro-4H-pyrazolo[3,4-d]pyrimidin-4-one]
- % T/C Lung (NCI-H460) (NCI-H460): 0%
- % T/C Breast (MCF-7) (MCF-7): 0%
- % T/C CNS (SF-268) (SF-268): 1%

- inhibition at 0.25 µM (COX-2): 31.4%
SMILES: Cc1ccc(-n2c(-c3ccccc3)nc3[nH]nc(N)c3c2=O)cc1 [Example 16, 3-Amino-5-(4-methylphenyl)-6-phenyl-1,5-dihydro-4H-pyrazolo[3,4-d]pyrimidin-4-one]

- inhibition at 0.25 µM (COX-2): 19.3%
- inhibition at 10 µM (COX-2): 23%
SMILES: Cc1ccc(-n2c(-c3ccc(S(C)(=O)=O)cc3)nc3[nH]nc(N)c3c2=O)cc1 [Example 14, 3-Amino-5-(4-methylphenyl)-6-[(4-methylsulfonyl)phenyl]-1,5-dihydro-4H-pyrazolo[3,4-d]pyrimidin-4-one]

- inhibition at 0.25 µM (COX-2): 20.2%
SMILES: CCOc1ccc(-n2c(-c3ccc(SC)cc3)nc3[nH]nc(N)c3c2=O)cc1 [Example 15, 3-Amino-5-(4-ethoxyphenyl)-6-[(4-methylthio)phenyl]-1,5-dihydro-4H-pyrazolo[3,4-d]pyrimidin-4-one]

SMILES: CCc1ccc(-n2c(-c3ccc(SC)cc3)nc3[nH]nc(N)c3c2=O)cc1 [Example 10, 3-Amino-5-(4-ethylphenyl)-6-[(4-methylthio)phenyl]-1,5-dihydro-4H-pyrazolo[3,4-d]pyrimidin-4-one]
- % T/C Lung (NCI-H460) (NCI-H460): 4%
- % T/C Breast (MCF-7) (MCF-7): 22%
- % T/C CNS (SF-268) (SF-268): 10%

- inhibition at 10 µM (COX-2): 31.8%
SMILES: CSc1ccc(-n2c(-c3ccc(F)cc3)nc3[nH]nc(N)c3c2=O)cc1 [Example 5, 3-Amino-5-[(4-methylthio)phenyl]-6-(4-fluorophenyl)-1,5-dihydro-4H-pyrazolo[3,4-d]pyrimidin-4-one]

SMILES: COc1ccc(-n2c(-c3ccc(N(C)C)cc3)nc3c(c(N)nn3C)c2=O)cc1 [Example 31, 3-Amino-6-[4-(dimethylamino)phenyl]-5-(4-methoxyphenyl)-1-methyl-1,5-dihydro-4H-pyrazolo[3,4-d]pyrimidin-4-one]
- inhibition at 10 µM (TNF-α [1]): 87.9%

SMILES: CCOc1ccc(-n2c(-c3ccc(SC)cc3)nc3c(c(N)nn3C)c2=O)cc1 [Example 21, 3-Amino-5-(4-ethoxyphenyl)-1-methyl-6-[4-(methylthio)phenyl]-1,5-dihydro-4H-pyrazolo[3,4-d]pyrimidin-4-one]
- inhibition at 10 µM (TNF-α [1]): 75.1%
- TNF-α Inhibition (%) (TNF-α [2]): 75.15 (at 50 mg/kg) %

- inhibition at 10 µM (COX-2): 29.2%
SMILES: CSc1ccc(-n2c(-c3ccccc3)nc3[nH]nc(N)c3c2=O)cc1 [Example 11, 3-Amino-5-[(4-methylthio)phenyl]-6-phenyl-1,5-dihydro-4H-pyrazolo[3,4-d]pyrimidin-4-one]

- inhibition at 0.25 µM (COX-2): 28.3%
SMILES: CSc1ccc(-n2c(-c3ccc(Cl)cc3)nc3[nH]nc(N)c3c2=O)cc1 [Example 8, 3-Amino-5-[(4-methylthio)phenyl]-6-(4-chlorophenyl)-1,5-dihydro-4H-pyrazolo[3,4-d]pyrimidin-4-one]
- % T/C Lung (NCI-H460) (NCI-H460): 2%
- % T/C Breast (MCF-7) (MCF-7): 26%
- % T/C CNS (SF-268) (SF-268): 36%

- inhibition at 0.25 µM (COX-2): 19.4%
- inhibition at 10 µM (COX-2): 36.5%
SMILES: CSc1ccc(-n2c(-c3ccc(C(F)(F)F)cc3)nc3[nH]nc(N)c3c2=O)cc1 [Example 17, 3-Amino-5-[(4-methylthio)phenyl]-6-(4-trifluoromethylphenyl)-1,5-dihydro-4H-pyrazolo[3,4-d]pyrimidin-4-one]
- % T/C Lung (NCI-H460) (NCI-H460): 25%
- % T/C Breast (MCF-7) (MCF-7): 0%
- % T/C CNS (SF-268) (SF-268): 0%

SMILES: CSc1ccc(-c2nc3c(c(N)nn3C)c(=O)n2-c2ccc(Br)cc2)cc1 [Example 30, 3-Amino-5-(4-bromophenyl)-1-methyl-6-[4-(methylthio)phenyl]-1,5-dihydro-4H-pyrazolo[3,4-d]pyrimidin-4-one]
- inhibition at 10 µM (TNF-α [1]): 86.6%

SMILES: CSc1ccc(-c2nc3c(c(N)nn3C(C)=O)c(=O)n2-c2ccc(C)c(C)c2)cc1 [Example 37, 1-Acetyl-3-amino-5-(3,4-dimethylphenyl)-6-[(4-methylthio)phenyl]-1,5-dihydro-4H-pyrazolo[3,4-d]pyrimidin-4-one]
- inhibition at 10 µM (TNF-α [1]): 29.9%

Source: patent US20090163521A1, “Novel Pyrazolopyrimidinone Derivatives” (ORCHID RESEARCH LABORATORIES LIMITED, priority 2005, published 2009)
